According to PubChem BioAssay (NCI):
Where “and” joins values, the source holds several entries; their conditions need not be identical. Equal values may be shown once.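 How tested: cells in 96-well plates exposed to compound for 48 hours at five concentrations. GI50: concentration for 50% inhibition of growth. At the TGI there is no net growth.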

What was measured:
Assay in all cases: NCI tumour cell line growth inhibition, 48 h
[1] = system: OVCAR-3 ovarian
[2] = system: SNB-75 CNS
[3] = system: RPMI-8226 leukemia
[4] = system: TK-10 renal
[5] = system: KM12 colon
[6] = system: SK-MEL-28 melanoma
[7] = system: BT-549 breast
[8] = system: HCT-15 colon
[9] = system: HCT-116 colon
[10] = system: A549 NSCLC
[11] = system: SN12C renal
[12] = system: COLO 205 colon
[13] = system: NCI-H226 lung
[14] = system: SNB-19 CNS
[15] = system: SF-268 CNS
[16] = system: CCRF-CEM leukemia
[17] = system: CAKI-1 renal
[18] = system: MDA-MB-231 breast
[19] = system: UACC-62 melanoma
[20] = system: HT29 colon
[21] = system: LOX IMVI melanoma
[22] = system: MDA-MB-435
[23] = system: HL-60(TB) leukemia
[24] = system: 786-0 renal
[25] = system: HCC-2998 colon
[26] = system: SF-295 CNS
[27] = system: U251 CNS
[28] = system: HS 578T breast
[29] = system: MCF7 breast
[30] = system: SW-620 colon
[31] = system: EKVX NSCLC
[32] = system: M14 melanoma
[33] = system: HOP-62 NSCLC
[34] = system: NCI-H23 lung
[35] = system: OVCAR-5 ovarian
[36] = system: SK-MEL-5 melanoma
[37] = system: OVCAR-8 ovarian
[38] = system: SR leukemia
[39] = system: NCI-H522 lung
[40] = system: DU-145 prostate
[41] = system: UO-31 renal
[42] = system: A498 renal
[43] = system: UACC-257 melanoma
[44] = system: OVCAR-4 ovarian
[45] = system: RXF 393 renal
[46] = system: T-47D breast
[47] = system: NCI-H460 lung
[48] = system: MOLT-4 leukemia
[49] = system: ACHN renal
[50] = system: PC-3 prostate
[51] = system: NCI/ADR-RES ovarian
[52] = system: IGROV1 ovarian
[53] = system: K-562 leukemia
[54] = system: SK-MEL-2 melanoma
[55] = system: HOP-92 NSCLC
[56] = system: SF-539 CNS
[57] = system: MALME-3M melanoma
[58] = system: SK-OV-3 ovarian

CO[C@@H](C)Cn1c(=O)n(C)c2cnc3ccc(-c4cncc(C(C)(C)O)c4)cc3c21
GI50 [1]: 119 nM and 65.6 nM | TGI [1]: 6.49 µM and > 3.39 µM | GI50 [2]: 23.5 nM and 21.7 nM | TGI [2]: 264 nM and 163 nM | GI50 [3]: 186 nM and 59 nM | TGI [3]: 2060 nM and 968 nM | GI50 [4]: 120 nM and 69.4 nM | TGI [4]: 719 nM and 536 nM | GI50 [5]: 326 nM and 122 nM | TGI [5]: 12.7 µM and > 10 µM | GI50 [6]: 143 nM and 77.3 nM | TGI [6]: 2500 nM and 573 nM | GI50 [7]: 54 nM and 41 nM | TGI [7]: 707 nM and 444 nM | GI50 [8]: 141 nM and 77.5 nM | TGI [8]: 23.2 µM and > 10 µM | GI50 [9]: 303 nM and 187 nM | TGI [9]: 10.8 µM and > 7.65 µM | GI50 [10]: 76.8 nM and 53.5 nM | TGI [10]: 1570 nM and > 3220 nM | GI50 [11]: 112 nM and 54.4 nM | TGI [11]: 70 µM and > 10 µM | GI50 [12]: 145 nM and 92.4 nM | TGI [12]: 1510 nM and 1490 nM | GI50 [13]: 40.6 nM | TGI [13]: 477 nM | GI50 [14]: 143 nM and 77.3 nM | TGI [14]: 7.79 µM and > 10 µM | GI50 [15]: 140 nM and 79.6 nM | TGI [15]: 16.8 µM and > 5.75 µM | GI50 [16]: 203 nM and 87.4 nM | TGI [16]: > 100 µM | GI50 [17]: 50.5 nM | TGI [17]: 512 nM | GI50 [18]: 166 nM and 44 nM | TGI [18]: 3870 nM and 2120 nM | GI50 [19]: 97.6 nM and 39.4 nM | TGI [19]: 413 nM and 255 nM | GI50 [20]: 93.3 nM and 75.6 nM | TGI [20]: 12.7 µM and > 6.87 µM | GI50 [21]: 52.6 nM and 37.6 nM | TGI [21]: 1270 nM and 1320 nM | GI50 [22]: 146 nM and 71.8 nM | TGI [22]: 3440 nM and 1160 nM | GI50 [23]: 717 nM and 361 nM | TGI [23]: 9.78 µM and > 6.74 µM | GI50 [24]: 59 nM and 41.8 nM | TGI [24]: 2200 nM and 1990 nM | GI50 [25]: 257 nM and 88.5 nM | TGI [25]: 13.8 µM and > 10 µM | GI50 [26]: 49.5 nM and 37.3 nM | TGI [26]: 422 nM and 328 nM | GI50 [27]: 127 nM and 63.3 nM | TGI [27]: 12.6 µM and > 10 µM | GI50 [28]: 28.6 nM | TGI [28]: 191 nM | GI50 [29]: 140 nM and 59.3 nM | TGI [29]: 47.9 µM and > 10 µM | GI50 [30]: 248 nM and 110 nM | TGI [30]: 16.4 µM and > 10 µM | GI50 [31]: 69.1 nM and 66.9 nM | TGI [31]: 847 nM and 1400 nM | GI50 [32]: 149 nM and 111 nM | TGI [32]: 5.1 µM and > 4.68 µM | GI50 [33]: 126 nM and 81 nM | TGI [33]: 1390 nM and 1410 nM | GI50 [34]: 203 nM and 133 nM | TGI [34]: 29.8 µM and > 6.67 µM | GI50 [35]: 191 nM and 95.6 nM | TGI [35]: > 100 µM | GI50 [36]: 103 nM and 99.2 nM | TGI [36]: 408 nM and 418 nM | GI50 [37]: 154 nM and 69.7 nM | TGI [37]: 2900 nM and > 4100 nM | GI50 [38]: 153 nM and 113 nM | TGI [38]: 14.9 µM and > 10 µM | GI50 [39]: 51.3 nM | TGI [39]: 653 nM | GI50 [40]: 93.5 nM and 59.1 nM | TGI [40]: > 100 µM | GI50 [41]: 34.8 nM and 23.7 nM | TGI [41]: 346 nM and 336 nM | GI50 [42]: 27.3 nM and 10.9 nM | TGI [42]: 124 nM and 59.1 nM | GI50 [43]: 195 nM and 93.2 nM | TGI [43]: 741 nM and 538 nM | GI50 [44]: 105 nM and 51.4 nM | TGI [44]: 676 nM and 667 nM | GI50 [45]: 41.6 nM and 32.5 nM | TGI [45]: 341 nM and 216 nM | GI50 [46]: 40.9 nM and 28.4 nM | TGI [46]: 378 nM and 208 nM | GI50 [47]: 143 nM and 53.9 nM | TGI [47]: > 100 µM | GI50 [48]: 196 nM and 163 nM | TGI [48]: 1770 nM and 4100 nM | GI50 [49]: 135 nM and 97.5 nM | TGI [49]: > 100 µM | GI50 [50]: 161 nM and 44.5 nM | GI50 [51]: 1060 nM and 384 nM | TGI [51]: 14 µM and > 10 µM | GI50 [52]: 40.7 nM and 30.3 nM | TGI [52]: 249 nM and 212 nM | GI50 [53]: 302 nM and 132 nM | TGI [53]: > 100 µM | GI50 [54]: 105 nM | TGI [54]: 494 nM | GI50 [55]: 109 nM and 27.9 nM | TGI [55]: 644 nM and 188 nM | GI50 [56]: 105 nM and 52.5 nM | TGI [56]: 696 nM and 414 nM | GI50 [57]: 58.4 nM and 63.8 nM | TGI [57]: 317 nM and 480 nM | GI50 [58]: 48.8 nM and 42.4 nM | TGI [58]: 358 nM and 285 nM
